How the values were obtained:
MCF-7 cells [1] = assay: Annexin V-FITC/PI double staining, flow cytometry; assay type: cell-based, human; details: MCF-7, 5.0 μM, 24 h
Procedure: It was reported that the inactivation of HDAC and/or MDM2 could increase the percentage of apoptosis cells ([85]–[87]). Therefore, three methods were applied to assess the effect of MDM2-HDAC dual inhibitor 11b on the apoptosis of MCF-7 cells. […] Subsequently, the annexin V-FITC/propidium iodide (PI) double staining method was carried out to quantitatively detect the effect of compound 11b on cell apoptosis (Figure 9B).
Cells were collected after incubation, then fixed with 75% ice-cold ethanol and stored at -20°C for 1 h. The cells were then harvested with 0.25% trypsin (without EDTA) and centrifuged at 2000 rpm for 5min. Then, the harvested cells were washed with ice-cold PBS twice and resuspended in 500 μL of 1× binding buffer, which was then added to 5 μL of annexin V-FITC and incubated at room temperature in the dark for 15 min. After adding 10 μL of propidium iodide (PI), the cells were incubated at room temperature in the dark. After another 15 min incubation, the cells were collected and analyzed by flow cytometry.

MCF-7 cells [2] = assay: MTT antiproliferative assay, MCF-7; details: Homo sapiens, MCF7, read-out: IC50 MCF-7
Procedure: (§1) The cytotoxicity assay was performed with MTT method as previously described ([73], [88], [89]).

A431 cells = assay: MTT antiproliferative assay, A431; details: Homo sapiens, A-431, read-out: IC50 A431
Procedure: as §1

HCT116 cells = assay: MTT antiproliferative assay, HCT116; details: Homo sapiens, HCT-116, read-out: IC50 HCT116
Procedure: as §1

GST-tagged MDM2 = target: T1, GST-tagged MDM2 (Homo sapiens, UniProt Q00987); assay: HTRF enzyme inhibition assay, MDM2; assay type: biochemical; details: compound at 1 μM
T1 construct: purchased Cisbio Co. Ltd
T1 sequence (Q00987 whole entry): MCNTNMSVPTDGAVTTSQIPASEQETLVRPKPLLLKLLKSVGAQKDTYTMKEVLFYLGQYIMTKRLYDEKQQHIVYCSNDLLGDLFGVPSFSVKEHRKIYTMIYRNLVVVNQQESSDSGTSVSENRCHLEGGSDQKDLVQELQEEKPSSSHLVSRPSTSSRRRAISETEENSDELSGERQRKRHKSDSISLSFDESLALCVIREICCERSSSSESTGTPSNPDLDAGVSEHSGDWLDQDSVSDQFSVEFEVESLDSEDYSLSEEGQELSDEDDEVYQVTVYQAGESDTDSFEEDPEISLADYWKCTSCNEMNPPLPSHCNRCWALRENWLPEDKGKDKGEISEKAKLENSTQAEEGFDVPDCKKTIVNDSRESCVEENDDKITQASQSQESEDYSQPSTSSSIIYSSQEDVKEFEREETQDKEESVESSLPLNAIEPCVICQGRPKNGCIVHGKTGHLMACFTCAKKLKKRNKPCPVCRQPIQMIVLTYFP

HDAC1 = HDAC1 (Homo sapiens, UniProt Q13547); assay: HTRF enzyme inhibition assay, HDAC1; details: read-out: % enzyme inhibition HDAC
Sequence of HDAC1 (Q13547 whole entry): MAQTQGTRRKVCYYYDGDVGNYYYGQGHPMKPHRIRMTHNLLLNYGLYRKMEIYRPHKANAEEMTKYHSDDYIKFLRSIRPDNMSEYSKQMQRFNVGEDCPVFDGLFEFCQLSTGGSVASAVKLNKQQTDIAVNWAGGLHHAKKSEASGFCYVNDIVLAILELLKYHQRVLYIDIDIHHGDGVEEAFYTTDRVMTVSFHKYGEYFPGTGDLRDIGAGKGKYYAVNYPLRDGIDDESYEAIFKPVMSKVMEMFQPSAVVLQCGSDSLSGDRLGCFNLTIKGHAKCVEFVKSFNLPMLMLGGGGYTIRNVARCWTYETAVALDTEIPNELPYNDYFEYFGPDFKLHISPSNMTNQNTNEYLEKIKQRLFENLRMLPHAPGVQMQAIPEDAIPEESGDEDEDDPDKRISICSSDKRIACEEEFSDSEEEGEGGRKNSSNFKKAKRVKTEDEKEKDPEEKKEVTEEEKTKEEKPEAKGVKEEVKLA
Procedure: The data obtained were processed by the ratio method, and the inhibition rates of MDM2 and HDAC1 were calculated. The detailed experimental procedures are according to the manufacturer’s protocols.

| SMILES | apoptotic cells (MCF-7 cells [1]) [%] | IC50 (MCF-7 cells [2]) [µM] | IC50 (A431 cells) [µM] | IC50 (HCT116 cells) [µM] | inhibition at 1 µM (GST-tagged MDM2) [%] | melting point [°C] | inhibition at 1 µM (HDAC1) [%] |
| --- | --- | --- | --- | --- | --- | --- | --- |
| COc1ccc(C2=N[C@@H](c3ccc(Cl)cc3)[C@@H](c3ccc(Cl)cc3)N2C(=O)N2CCNC(=O)C2)c(OC(C)C)c1 [Nutlin-3, reference compound] | 28.23 | 9.75 ± 2.97 | 9.72 ± 1.66 | 11 ± 2.42 | – | – | – |
| O=C(COCC(=O)Nc1ccc([C@@H]2[C@H]3CSCN3[C@]3(C(=O)Nc4cc(Cl)ccc43)[C@H]2C(=O)c2ccccc2)cc1)NO [7u, N-(4-((3R,6'S,7'R,7a'S)-6'-benzoyl-6-chloro-2-oxo-1',6',7',7a'-tetrahydro-3'H-spiro[indoline-3,5'-pyrrolo[1,2-c]thiazol]-7'-yl)phenyl)-2-(2-(hydroxyamino)-2-oxoethoxy)acetamide] | – | 3.47 ± 0.92 | 3.64 ± 0.56 | 4.59 ± 0.91 | 61 | 167.1 to 168.5 | 54 |
| O=C(CCCCC(=O)N1CCC(C(=O)Nc2ccc([C@@H]3[C@H]4CSCN4[C@]4(C(=O)Nc5cc(Cl)ccc54)[C@H]3C(=O)c3ccccc3)cc2)CC1)NO [11a, N-(4-((3R,6'S,7'R,7a'S)-6'-benzoyl-6-chloro-2-oxo-1',6',7',7a'-tetrahydro-3'H-spiro[indoline-3,5'-pyrrolo[1,2-c]thiazol]-7'-yl)phenyl)-1-(6-(hydroxyamino)-6-oxohexanoyl)piperidine-4-carboxamide] | – | 4.48 ± 1.46 | 4.62 ± 0.78 | 4.32 ± 0.9 | 62 | 170.3 to 171.5 | 70 |
| O=C(CCCCCCC(=O)Nc1ccc([C@@H]2[C@@H](c3ccccc3)N[C@]3(C(=O)Nc4cc(Cl)ccc43)[C@H]2C(=O)c2ccccc2)cc1)NO [15a, N^1-(4-((3R,3'S,4'R,5'S)-3'-benzoyl-6-chloro-2-oxo-5'-phenylspiro[indoline-3,2'-pyrrolidin]-4'-yl)phenyl)-N^8-hydroxyoctanediamide] | – | 5.71 ± 1.03 | 6.99 ± 0.92 | 8.45 ± 2.44 | 67 | 146.5 to 147.6 | 61 |
| O=C(CCCCCCC(=O)Nc1ccccc1)NO [SAHA, vorinostat] | 7.56 | – | – | – | – | – | – |
